Columns and labels:
[1] = tested on: TPO receptors; conditions: depends on His 499 in the transmembrane portion; cited from earlier work
[2] = tested on: Human bone marrow mononuclear cells; assay: Megakaryocyte and CD41+CD34- cell differentiation in ex vivo human bone marrow culture in 3D bioreactor; type: cell-based; conditions: eltrombopag 8 μg/mL + IL11 vs TPO + IL11; non-irradiated control and irradiated cultures; 14 days
Experimental: FIGS. 12A-D illustrate the effects of IL-11 only (middle/red bars) versus TPO+IL11 (left/blue bars) versus eltrombopag (8 μg/mL)+IL11 (right/green bars) on promoting megakaryocyte or CD41+CD34− cell differentiation in control and irradiated ex vivo human 3D bone marrow mononuclear cells. Cells were treated with TPO and IL11 (5 ng/mL each) for 6-7 days to induce megakaryocyte differentiation. Culture media was replaced with cultures containing IL-11 only, TPO+IL11, or eltrombopag+IL11 for the groups of control cultures (FIGS. 12A, 12C) and the group of irradiated cultures (FIGS. 12B, 12D). […]
Human bone marrow mononuclear cells were inoculated into the 6-well bioreactor as described above (3.5×10^6 cells in 0.6 mL). […] Cultures were screened weekly for cell viability (Trypan blue exclusion test) and for megakaryocytes production expressed as number of megakaryocytes per 1000 bone marrow cells on Wright stained cytospin slides.
Flow cytometry analysis of CD41+CD34− cells (marker for precursor/progenitor of thrombopoiesis) was also performed for megakaryocytes and progenitors as an additional experimental end-point. […] Cells were analyzed on FACS—Calibur Flow Cytometer (Becton-Dickinson, Rockville, Md.). CD41+CD34− cell population was gated as a subpopulation of all living cells analyzed. […]

[3] = tested on: TM KI homozygote mutant mice; assay: Blood cell recovery in irradiated human c-Mpl TM (exon 10) KI mice; type: in vivo, mouse; conditions: 6.5 Gy TBI, 25 mg/kg/day oral gavage from 24 h post IR, vs vehicle
Experimental: TM KI homozygote mutant mice (11 weeks old, male and female) were treated with 6.5 Gy TBI and at 24 hr post IR fed with 25 mg ePag/kg/day or vehicle by oral gavage daily for 28 days or till sacrificed. Mice were sacrificed on the day specified. Whole blood was obtained by heart puncture and CBC was done by Heska HemaTrue Hematology analyzer. Whole blood was also stained by anti CD41 and anti CD61 antibodies. BM was extracted and stained with mCD41 and mCD42d for flow cytometry analysis of […] cells (markers for precursor and progenitors for thrombopoiesis).
The ratio of platelets to RBCs was measured by flow cytometry after whole blood was stained with anti-CD41 and anti-CD61 antibodies. The count of platelets was calculated by multiplying the ratio with the count of RBCs obtained by Heska HemaTrue Hematology Analyzer. Week 0 is normal mice without IR and gavage.

[4] = tested on: Mpl^hmMPL knock-in mice; assay: Survival of Mpl^hmMPL knock-in mice after lethal total body irradiation; type: in vivo, mouse; conditions: 8 Gy TBI, eltrombopag 50 mg/kg gavage daily for 15 days from 24 h after TBI, monitored 30 days
Experimental: FIG. 3 is a Kaplan-Meier survival curve showing survival of wildtype and Mpl^hmMPL knock-in mice after exposure to a non-therapeutic dose of radiation. Male Mpl^hmMPL knock-in mice received total body irradiation (TBI) of 8 Gy. Twenty-four hours after TBI, mice were gavaged daily with eltrombopag (50 mg/kg) for 15 days. Survival of mice was monitored twice daily for 30 days. Experiments were carried out with 8 homozygous Mpl^hmMPL knock-in mice, 10 heterozygous Mpl^hmMPL knock-in mice, and 10 wild type mice.
All mice received 8 Gy total body irradiation and were treated with eltrombopag 24 hours after irradiation. […] It is believed that eltrombopag facilitates bone marrow recovery after radiation injury to the hematopoietic system.

[5] = tested on: human c-mpl TM (exon 10) KI mice; assay: Survival of irradiated human c-mpl TM (exon 10) KI mice; type: in vivo, mouse; conditions: 7.75 Gy TBI; for survival after TBI: male mice, 12.5, 25 or 50 mg/kg daily gavage 15 days from 24 h after irradiation, vs vehicle
Experimental: (§1) Male Mpl^hExon10KI (human c-mpl TM knock-in mice) received 7.75 Gy TBI. Twenty-four hours after irradiation, mice were gavaged with either vehicle (0 mg/kg of eltrombopag) or one of the three doses of eltrombopag (12.5 mg/kg, 25 m g/kg, vs. 50 mg/kg daily for 15 days (n=8-10) for each experimental group.
as §1, with “A pilot radiation study of was performed using human” for “Male Mpl^hExon10KI (human”, “KI mice before completion of backcrossing to >95% C57B1. Male human c-mpl TM (exon 10) KI mice” for “knock-in mice)”

[6] = tested on: Mpl^hExon10 KI mice; assay: Eltrombopag treatment of non-irradiated Mpl^hExon10 KI mice: platelet and bone marrow cell populations; type: in vivo, mouse; conditions: 25 mg/kg/day gavage 15 days, vs vehicle
Experimental: Mpl^hExon10 KI mice (9 to 13 weeks old, male and female) were fed with 25 mg eltrombopag (ePag)/kg/day or vehicle by gavage for 15 days. Eltrombopag is a non-peptide mimetic of the TPO receptor. Mice were sacrificed on the 16th day for cell analysis.
To examine platelet levels, whole blood was obtained by heart puncture and CBC was done by Heska HemaTrue Hematology analyzer. Whole blood was also stained by anti CD41 and anti CD61 antibodies. The ratio of platelets to RBCs was measured by flow cytometry after whole blood was stained with anti-CD41 and anti-CD61 antibodies. The count of platelets was calculated by multiplying the ratio with the count of RBCs obtained by Heska HemaTrue Hematology Analyzer. The data is presented as mean±standard error of the mean.
To examine bone marrow cell populations, mice were sacrificed on day 16 and bone marrow cells were flushed out of the femur and tibia. RBCs were lysed by ACK buffer. The bone marrow mononuclear cells were stained with anti-CD41-PE and anti-CD42-APC. DAPI was added before flow cytometric analysis to gate away dead cells. The number of mice in each genotype is 5-7. All results are shown as the mean±standard error of the mean.
In a separate experiment, bone marrow mononuclear cells were stained with anti-lineages-PE (Gr-1, Mac-1, B220, Ter119, CD4 and CD8), anti-Sca-1 FITC, and anti-c-kit-APC. DAPI-pacific blue was added before flow cytometric analysis to eliminate dead cells. To analyze KSL (linage^−, c-kit^+, sca^+) population, live cells (DAPI-) are first gated, followed by gating the linage^− population and selecting c-kit^+/sca-1^+ population within the linage^− population.

CC1=NN(c2ccc(C)c(C)c2)C(=O)/C1=N\Nc1cccc(-c2cccc(C(=O)O)c2)c1O [eltrombopag, (Z)-3′-(2-(1-(3,4-dimethylphenyl)-3-methyl-5-oxo-1H-pyrazol-4(5H)-ylidene)hydrazinyl)-2′-hydroxybiphenyl-3-carboxylic acid]
species-specificity of TPO receptor binding [1]: binds to the TPO receptors of only humans and chimpanzees | CD41+CD34- cells (precursors/progenitors for thrombopoiesis) [2]: performed as well as TPO | megakaryocytes (number per 1000 bone marrow cells) [2]: performed as well as TPO in promoting megakaryocytes | red blood cell counts ([3]; 2 weeks post IR): an improvement | platelet counts ([3]; 4 and 6 weeks post IR): significant improvement | count of bone marrow precursor/progenitor cells for thrombopoiesis ([3]; 4 weeks post IR): significant improvement | white blood cell counts ([3]; 6 weeks post IR): significant improvement | survival after lethal total body irradiation, heterozygous Mpl^hmMPL knock-in mice ([4]; heterozygous vs wild type): survived longer than the wild type | survival after lethal total body irradiation, homozygous Mpl^hmMPL knock-in mice ([4]; homozygous vs heterozygous): survived longer than the heterozygous transgenic mice | survival after TBI, dose dependence ([5]; 25 and 50 mg/kg vs 12.5 mg/kg daily for 15 days): higher doses (25 mg/kg and 50 mg/kg) yielded better survival | survival after TBI [5]: improves survival | survival after TBI ([5]; listed as Eltrombopag): improved the survival of mice | bone marrow Lin-KSL (stem) cells ([6]; Mpl^hExon10 KI mice): significantly increased | bone marrow CD41+CD42+ cells ([6]; homozygous Mpl^hExon10 KI mice, day 16): significantly increased | platelet counts in the peripheral blood ([6]; homozygous Mpl^hExon10 KI mice, day 16, 25 mg/kg/day): significantly increased the platelet counts

Reference: patent US20140047572A1, “THROMBOPOIETIN MIMETICS FOR THE TREATMENT OF RADIATION OR CHEMICAL INDUCED BONE MARROW INJURY” (priority 2012, published 2014)
